Measured values published in ChEMBL document CHEMBL2010711, “Synthesis and comparative evaluation of 4-oxa- and 4-aza-podophyllotoxins as antiproliferative microtubule destabilizing agents” (Bioorg Med Chem Lett, 2012).
Calls of active or inactive are those of the source.

Columns and labels:
[1] = system: NCI-H23; assay: Cytotoxicity against human NCI-H23 cells after 48 hrs by trypan blue dye exclusion assay; assay type: functional; conditions: NCI-H23, 48 h
[2] = system: COLO 205; assay: Cytotoxicity against human COLO205 cells after 48 hrs by trypan blue dye exclusion assay; assay type: functional; conditions: COLO 205, 48 h
[3] = Cytotoxicity against human Hs 578T cells after 48 hrs by trypan blue dye exclusion assay; assay type: functional
[4] = system: Paracentrotus lividus; assay: Antimitotic activity against Paracentrotus lividus embryo assessed as cleavage arrest at 2 fold less effective threshold concentration after 2.5 to 6 hrs; assay type: functional, organism-based
[5] = system: MDA-MB-468; assay: Cytotoxicity against human MDA-MB-468 cells after 48 hrs by trypan blue dye exclusion assay; assay type: functional; conditions: MDA-MB-468, 48 h
[6] = system: EKVX; assay: Cytotoxicity against human EKVX cells after 48 hrs by trypan blue dye exclusion assay; assay type: functional
[7] = system: Paracentrotus lividus; assay: Microtubule destabilizing activity in Paracentrotus lividus embryo assessed as embryo spinning at 2 fold less effective threshold concentration after 15 mins to 20 hrs; assay type: functional, organism-based
[8] = system: Paracentrotus lividus; assay: Antimitotic activity against Paracentrotus lividus embryo assessed as concentration required to cause 100% cleavage arrest after 2.5 to 6 hrs; assay type: functional
[9] = system: HT-29; assay: Cytotoxicity against human HT-29 cells after 48 hrs by trypan blue dye exclusion assay; assay type: functional; conditions: HT-29, 48 h
[10] = system: Paracentrotus lividus; assay: Microtubule destabilizing activity in Paracentrotus lividus embryo assessed as concentration required to cause 100% embryo spinning after 15 mins to 20 hrs; assay type: functional
[11] = system: HL-60(TB); assay: Cytotoxicity against human HL-60(TB) cells after 48 hrs by trypan blue dye exclusion assay; assay type: functional; conditions: HL-60, 48 h
[12] = system: UACC-62; assay: Cytotoxicity against human UACC62 cells after 48 hrs by trypan blue dye exclusion assay; assay type: functional; conditions: UACC-62, 48 h
[13] = system: K562; assay: Cytotoxicity against human K562 cells after 48 hrs by trypan blue dye exclusion assay; assay type: functional; conditions: K562, 48 h
[14] = system: KM12; assay: Cytotoxicity against human KM12 cells after 48 hrs by trypan blue dye exclusion assay; assay type: functional; conditions: KM12, 48 h
[15] = system: SNB-19; assay: Cytotoxicity against human SNB19 cells after 48 hrs by trypan blue dye exclusion assay; assay type: functional; conditions: SNB-19, 48 h
[16] = system: Paracentrotus lividus; assay: Antimitotic activity against Paracentrotus lividus embryo assessed as cleavage alteration at 2 fold less effective threshold concentration after 2.5 to 6 hrs; assay type: functional, organism-based
[17] = system: SF-295; assay: Cytotoxicity against human SF295 cells after 48 hrs by trypan blue dye exclusion assay; assay type: functional; conditions: SF-295, 48 h
[18] = system: MOLT-4; assay: Cytotoxicity against human MOLT4 cells after 48 hrs by trypan blue dye exclusion assay; assay type: functional; conditions: MOLT-4, 48 h
[19] = system: SF-539; assay: Cytotoxicity against human SF539 cells after 48 hrs by trypan blue dye exclusion assay; assay type: functional; conditions: SF-539, 48 h
[20] = system: SK-MEL-5; assay: Cytotoxicity against human SK-MEL-5 cells after 48 hrs by trypan blue dye exclusion assay; assay type: functional; conditions: SK-MEL-5, 48 h
[21] = system: A498; assay: Cytotoxicity against human A498 cells after 48 hrs by trypan blue dye exclusion assay; assay type: functional; conditions: A498, 48 h
[22] = system: HOP-62; assay: Cytotoxicity against human HOP62 cells after 48 hrs by trypan blue dye exclusion assay; assay type: functional; conditions: HOP-62, 48 h
[23] = system: SK-OV-3; assay: Cytotoxicity against human SKOV3 cells after 48 hrs by trypan blue dye exclusion assay; assay type: functional; conditions: SK-OV-3, 48 h
[24] = system: Malme-3M; assay: Cytotoxicity against human MALME-3M cells after 48 hrs by trypan blue dye exclusion assay; assay type: functional
[25] = system: HCC 2998; assay: Cytotoxicity against human HCC2998 cells after 48 hrs by trypan blue dye exclusion assay; assay type: functional; conditions: HCC 2998, 48 h
[26] = system: U-251; assay: Cytotoxicity against human U251 cells after 48 hrs by trypan blue dye exclusion assay; assay type: functional; conditions: U-251, 48 h
[27] = system: SN12C; assay: Cytotoxicity against human SN12C cells after 48 hrs by trypan blue dye exclusion assay; assay type: functional
[28] = system: ACHN; assay: Cytotoxicity against human ACHN cells after 48 hrs by trypan blue dye exclusion assay; assay type: functional
[29] = system: CCRF-CEM; assay: Cytotoxicity against human CCRF-CEM cells after 48 hrs by trypan blue dye exclusion assay; assay type: functional
[30] = system: HCT-15; assay: Cytotoxicity against human HCT15 cells after 48 hrs by trypan blue dye exclusion assay; assay type: functional; conditions: HCT-15, 48 h
[31] = system: HOP-92; assay: Cytotoxicity against human HOP92 cells after 48 hrs by trypan blue dye exclusion assay; assay type: functional; conditions: HOP-92, 48 h
[32] = system: RXF 393; assay: Cytotoxicity against human RXF393 cells after 48 hrs by trypan blue dye exclusion assay; assay type: functional; conditions: RXF 393, 48 h
[33] = system: Paracentrotus lividus; assay: Antimitotic activity against Paracentrotus lividus embryo assessed as concentration required to cause 100% cleavage alteration after 2.5 to 6 hrs; assay type: functional
[34] = system: SNB-75; assay: Cytotoxicity against human SNB75 cells after 48 hrs by trypan blue dye exclusion assay; assay type: functional; conditions: SNB-75, 48 h
[35] = system: SW-620; assay: Cytotoxicity against human SW620 cells after 48 hrs by trypan blue dye exclusion assay; assay type: functional; conditions: SW-620, 48 h
[36] = system: PC-3; assay: Cytotoxicity against human PC3 cells after 48 hrs by trypan blue dye exclusion assay; assay type: functional; conditions: PC-3, 48 h
[37] = system: UO-31; assay: Cytotoxicity against human UO31 cells after 48 hrs by trypan blue dye exclusion assay; assay type: functional; conditions: UO-31, 48 h
[38] = system: DU-145; assay: Cytotoxicity against human DU145 cells after 48 hrs by trypan blue dye exclusion assay; assay type: functional; conditions: DU-145, 48 h
[39] = system: 786-0; assay: Cytotoxicity against human 786-0 cells after 48 hrs by trypan blue dye exclusion assay; assay type: functional; conditions: 786-0, 48 h
[40] = system: NCI-H226; assay: Cytotoxicity against human NCI-H226 cells after 48 hrs by trypan blue dye exclusion assay; assay type: functional; conditions: NCI-H226, 48 h
[41] = system: A549; assay: Cytotoxicity against human A549 cells after 48 hrs by trypan blue dye exclusion assay; assay type: functional; conditions: A549, 48 h
[42] = system: M14; assay: Cytotoxicity against human M14 cells after 48 hrs by trypan blue dye exclusion assay; assay type: functional; conditions: M14, 48 h
[43] = system: BT-549; assay: Cytotoxicity against human BT549 cells after 48 hrs by trypan blue dye exclusion assay; assay type: functional; conditions: BT-549, 48 h
[44] = system: NCI-H322M; assay: Cytotoxicity against human NCI-H322M cells after 48 hrs by trypan blue dye exclusion assay; assay type: functional
[45] = system: CAKI-1; assay: Cytotoxicity against human CAKI-1 cells after 48 hrs by trypan blue dye exclusion assay; assay type: functional; conditions: CAKI-1, 48 h
[46] = system: LOX IMVI; assay: Cytotoxicity against human LOXIMVI cells after 48 hrs by trypan blue dye exclusion assay; assay type: functional
[47] = system: MDA-MB-435; assay: Cytotoxicity against human MDA-MB-435 cells after 48 hrs by trypan blue dye exclusion assay; assay type: functional; conditions: MDA-MB-435, 48 h
[48] = system: SK-MEL-28; assay: Cytotoxicity against human SK-MEL-28 cells after 48 hrs by trypan blue dye exclusion assay; assay type: functional; conditions: SK-MEL-28, 48 h
[49] = system: IGROV-1; assay: Cytotoxicity against human IGROV1 cells after 48 hrs by trypan blue dye exclusion assay; assay type: functional; conditions: IGROV-1, 48 h
[50] = system: HCT-116; assay: Cytotoxicity against human HCT116 cells after 48 hrs by trypan blue dye exclusion assay; assay type: functional; conditions: HCT-116, 48 h
[51] = system: SR; assay: Cytotoxicity against human SR cells after 48 hrs by trypan blue dye exclusion assay; assay type: functional

COc1ccc2c(c1)OC1=C(C(=O)OC1)C2c1cc(OC)c2c(c1)OCO2 (configuration not stated)
GI50 [1]: 23.5 nM
GI50 [2]: 27.8 nM
TGI [2]: 69.2 nM
GI50 [3]: 30.8 nM
Activity [4]: inactive
GI50 [5]: 26.3 nM
GI50 [6]: 77.8 nM
Activity [7]: inactive
EC [8]: 10 nM
GI50 [9]: 33.1 nM
EC [10]: 100 nM
GI50 [11]: 30.3 nM
GI50 [12]: 35 nM
GI50 [13]: 33 nM
GI50 [14]: 29.6 nM
GI50 [15]: 47.9 nM
Activity [16]: inactive
GI50 [17]: 20.2 nM
GI50 [18]: 65 nM
GI50 [19]: 34.4 nM
GI50 [20]: 36.9 nM
GI50 [21]: 27.2 nM
GI50 [22]: 34.9 nM
GI50 [23]: 29.3 nM
GI50 [24]: > 100000 nM
GI50 [25]: 42.1 nM
GI50 [26]: 42.7 nM
GI50 [27]: 62.5 nM
GI50 [28]: 267 nM
GI50 [29]: 37 nM
GI50 [30]: 47.5 nM
GI50 [31]: 73000 nM
GI50 [32]: 17.8 nM
EC [33]: 2 nM
GI50 [34]: 13.9 nM
GI50 [35]: 39.2 nM
GI50 [36]: 40.9 nM
GI50 [37]: 57.6 nM
GI50 [38]: 35.2 nM
GI50 [39]: 51.4 nM
GI50 [40]: 33.4 nM
GI50 [41]: 44.4 nM
GI50 [42]: 23.3 nM
GI50 [43]: 107 nM
GI50 [44]: 71.3 nM
GI50 [45]: 58 nM
GI50 [46]: 69.1 nM
GI50 [47]: < 10 nM
GI50 [48]: 34.2 nM
GI50 [49]: 62.4 nM
GI50 [50]: 37.4 nM
GI50 [51]: 37.8 nM
